These results are taken from patent US7186735B2, “Acylated arylcycloalkylamines and their use as pharmaceuticals” (Sanofi-Aventis Deutschland GmbH, priority 2002, dated 2007).

In this assay the target is eNOS promoter. Kind of assay: Activation of eNOS transcription (eNOS promoter-luciferase reporter gene assay). The assay is classed as cell-based. The conditions noted are these: human endothelial cell line stably transfected with eNOS promoter-luciferase construct; 18 h incubation; EC50 determined graphically from TIR vs concentration; read-out: eNOS transcription induction ratios EC50. The protocol: Determination of Activation of eNOS Transcription
Activation of eNOS transcription was determined as described in detail in Li et al., “Activation of protein kinase C alpha and/or epsilon enhances transcription of the human endothelial nitric oxide synthase gene”, Mol. Pharmacol. 53 (1998) 630, the content of which is incorporated herein by reference.
Briefly, a 3.5 kB long fragment 5′ of the starting codon of the eNOS gene was cloned, sequenced and cloned in firefly luciferase expression plasmids to monitor activation of the eNOS promoter by reporter gene activity. A human endothelial cell line stable transfected and expressing this promoter-reporter construct was used for compound testing. Cells were incubated for 18 h with compounds.
All compounds were dissolved in sterile dimethyl sulfoxide (DMSO). A final concentration of 0.5% DMSO in complete medium was allowed. Induction of reporter gene expression in these cells was measured using a standard luciferase assay system (Promega, Cat. No E150) according to the manufacturer's instructions. Luciferase induction in cells incubated with compounds were compared to those incubated with solvent alone. The ratio of both activities (transcription induction ratio, TIR) was plotted as a function of compound concentration. Typically, TIR values started at low concentrations at a ratio of 1, indicating no compound effect, and extended up to a maximum TIR value TIR(max) which indicates the increase of the eNOS transcription. EC50 values of transcription induction ratios as a function of compound concentration were determined graphically.
On to `Cc1nc(C)c(C(=O)N[C@@H]2C[C@H]2c2ccccc2)o1` (racemic) [Example 1], for which the EC50 is 18000 nM.
Regarding `Cc1nc(C2CC2)sc1C(=O)N[C@@H]1C[C@H]1c1ccccc1` (racemic) [Example 3], the EC50 turned out to be 300 nM.
As to `Cc1ccc(C(=O)N[C@@H]2C[C@H]2c2ccccc2)c(C)n1` (racemic) [Example 4], the EC50 worked out at 330 nM.
The same measure for `Cc1nc(N)c(C(=O)N[C@@H]2C[C@H]2c2ccccc2)nc1C` (racemic) [Example 5]: 160 nM; for `Cc1ccc(C(=O)N[C@@H]2C[C@H]2c2ccccc2)cc1NS(C)(=O)=O` (racemic) [Example 7]: 1800 nM; for `CS(=O)(=O)Nc1cccc(C(=O)N[C@@H]2C[C@H]2c2ccccc2)c1` (racemic) [Example 8]: 2000 nM.
Regarding `O=C(N[C@@H]1C[C@H]1c1ccccc1)c1ccc(N2CCOCC2)nc1` (racemic) [Example 9], the EC50 amounted to 3500 nM.
With `O=C(N[C@@H]1C[C@H]1c1ccccc1)c1cnc2c(c1)CCCC2` (racemic) [Example 10], the EC50 was found to be 5100 nM.
With `COc1ccc(C(=O)N[C@@H]2C[C@H]2c2ccccc2)cn1` (racemic) [Example 11], the EC50 stood at 780 nM.
Take `Cc1ncc(C(=O)N[C@@H]2C[C@H]2c2ccccc2)s1` (racemic) [Example 12]: the EC50 was 10000 nM.
Consider `O=C(N[C@@H]1C[C@H]1c1ccccc1)c1cccc(N2CCCC2)c1` (racemic) [Example 13], for which the EC50 stood at 1300 nM.
For the compound `O=C(N[C@@H]1C[C@H]1c1ccccc1)c1cccc(N2CCCCC2)c1` (racemic) [Example 14], the EC50 is 11000 nM.
Consider `CN1CCN(c2cccc(C(=O)N[C@@H]3C[C@H]3c3ccccc3)c2)CC1` (racemic) [Example 15], for which the EC50 stood at 59000 nM.
Turning to `O=C(N[C@@H]1C[C@H]1c1ccccc1)c1cccc(N2CCOCC2)c1` (racemic) [Example 16], the EC50 is 32000 nM.
With `Cc1cc(C(=O)N[C@@H]2C[C@H]2c2ccccc2)c(C)n1Cc1cccs1` (racemic) [Example 17], the EC50 is under 10 nM.
Then `Cc1nc2ccc(C(=O)N[C@@H]3C[C@H]3c3ccccc3)cc2[nH]1` (racemic) [Example 18], with 330 nM; and `CC(C)S(=O)(=O)c1csc(C(=O)N[C@@H]2C[C@H]2c2ccccc2)c1Cl` (racemic) [Example 19], with 450 nM; and `Cc1c(C(=O)N[C@@H]2C[C@H]2c2ccccc2)cnn1-c1ccccc1` (racemic) [Example 20], with 110 nM.
In the case of `O=C(N[C@@H]1C[C@H]1c1ccccc1)c1cnn(-c2ccccc2)c1C(F)(F)F` (racemic) [Example 21], the EC50 turned out to be 240 nM.
For `Cc1cc(C(=O)N[C@@H]2C[C@H]2c2ccccc2)c(C)n1Cc1ccncc1` (racemic) [Example 22], the EC50 worked out at 24000 nM.
Regarding `Cc1nc(C)c(C(=O)N[C@@H]2C[C@H]2c2ccccc2)s1` (racemic) [Example 23], the EC50 was 600 nM.
As to `Nc1ncccc1C(=O)N[C@@H]1C[C@H]1c1ccccc1` (racemic) [Example 24], the EC50 amounted to 950 nM.
On to `Cc1ccc(C(=O)N[C@@H]2C[C@H]2c2ccccc2)cn1` (racemic) [Example 25], for which the EC50 amounted to 1100 nM.
The same measure for `Cc1ccc(C(=O)N[C@@H]2C[C@H]2c2ccccc2)c(Cl)n1` (racemic) [Example 26]: 290 nM.
With `COCc1ccc(C(=O)N[C@@H]2C[C@H]2c2ccccc2)cn1` (racemic) [Example 27], the EC50 is 4300 nM.
For the compound `Nc1nccnc1C(=O)N[C@@H]1C[C@H]1c1ccccc1` (racemic) [Example 28], the EC50 turned out to be 430 nM.
The same measure for `O=C(N[C@@H]1C[C@H]1c1ccccc1)c1ccc2cc[nH]c2c1` (racemic) [Example 29]: 100 nM; for `O=C(N[C@@H]1C[C@H]1c1ccccc1)c1ccc2[nH]ccc2c1` (racemic) [Example 30]: 100 nM; for `O=C(NC1CC1c1ccccc1)c1cccc2[nH]ccc12` (racemic) [Example 31]: 470 nM.
Take `CN(C)c1cccc(C(=O)NC2CC2c2ccccc2)c1` (racemic) [Example 32]: the EC50 is 1800 nM.
`Cc1cc(C)c(C(=O)NC2CC2c2ccccc2)c(N)n1` (racemic) [Example 33]: the EC50 stood at 12000 nM.
On to `O=C(NC1CC1c1ccccc1)c1cccc(Cl)c1Cl` (racemic) [Example 34], for which the EC50 was found to be 1200 nM.
The same measure for `O=C(NC1CC1c1ccccc1)c1ccc(F)cc1F` (racemic) [Example 36]: 310 nM; for `Cc1ccc(C(=O)NC2CC2c2ccccc2)s1` (racemic) [Example 37]: 260 nM; for `O=C(NC1CC1c1ccccc1)c1ccc(Cl)s1` (racemic) [Example 38]: 230 nM.
For the compound `O=C(N[C@@H]1C[C@H]1c1ccccc1)c1ccc(F)cc1` (relative stereo) [Example 39, 4-fluoro-N-(trans-2-phenylcyclopropyl)benzamide], the EC50 is 190 nM.
The same measure for `O=C(N[C@@H]1C[C@H]1c1ccccc1)c1ccc(F)cc1` (relative stereo) [Example 40, 4-Fluoro-N-(trans-2-phenylcyclopropyl)benzamide]: 1500 nM; for `O=C(N[C@@H]1C[C@H]1c1ccccc1)c1ccc(F)cc1` (relative stereo) [Example 41, 4-Fluoro-N-(trans-2-phenylcyclopropyl)benzamide]: 180 nM.
